In patent publication US20100286076A1, “ECTOPARASITICIDAL METHODS AND FORMULATIONS” (priority 2009, published 2010):
Where two headings read alike, the source gives them in different places.

Columns and labels:
House Fly = assay: Adult House Fly Assay (AhsF), feeding on compound-soaked dental wicks, 24 h mortality; design: species or system Musca domestica; conditions: 24 h, read-out: Potency (24 h EC50 μM)
Method: Adult Stable or House Fly Assay (ASF, AhsF). This assay is conducted essentially as described in White, W. H., S. M. Bauer, X. Zhao et al., Comparison of in vitro and in vivo ectoparasiticide activity of an experimental benzimidazole-carbamate with permethrin and amitraz, J. Med. Entomol. 42, 207-211 (2005); and White, W. H., C. M. McCoy, J. A. Meyer et al., Knockdown and mortality comparisons among spinosad-, imidacloprid-, and methomyl-containing baits against susceptible Musca domestica (Diptera: Muscidae) under laboratory conditions, J. Econ. Entomol. 100, 155-163 (2007).
Test material is formulated in DMSO at 10 mM. Doubling dilutions in like solvent are made to yield 10 testing levels. Materials are diluted in either bovine serum (stable flies) or 5% glucose solution (house flies) to obtain desired exposure concentrations from 200-0.39 μM. Approximately 3 ml of diluted test material is placed into a test tube (n=3 per test level) and a dental wick is used to absorb fluid. One dental wick is placed into a small weigh boat inside of a 100 mm Petri dish. Approximately 10 mixed-sex adult flies are anesthetized using carbon dioxide and counted into each dish. Dishes are incubated at 27° C. and 50-70% relative humidity. Flies recover from anesthesia and feed on compound-soaked dental wicks. After 24 h, live/dead flies are enumerated. Nonlinear regression is used to model dose-mortality relationship and obtain relative potency (LD50) data compared to contemporaneous controls (solvent-only or permethrin).

[1] = system: adult cat flea, Ctenocephalides felis; conditions: dogs, historical data, not contemporaneous controls, cited from earlier work

| Compound | EC50 (House Fly; Musca domestica) | EC50 (House Fly; adult house flies, 5% glucose solution) | geometric mean percent flea reduction, Day 7 ([1]; Day 7) | geometric mean percent flea reduction, Day 14 ([1]; Day 14) | geometric mean percent flea reduction, Day 21 ([1]; Day 21) | geometric mean percent flea reduction, Day 30 ([1]; Day 30) | geometric mean percent flea reduction, Day 37 ([1]; Day 37) | geometric mean percent flea reduction, Knockdown ([1]; Knockdown) |
| --- | --- | --- | --- | --- | --- | --- | --- | --- |
| N#Cc1nn(-c2c(Cl)cc(C(F)(F)F)cc2Cl)c(N)c1[S+]([O-])C(F)(F)F (centres unmarked) [Fipronil, reference compound] | 0.97 µM | – | – | – | – | – | – | – |
| Spinosad | – | 12 µM | 100% | 99.6% | 100% | 97.8% | 91.1% | 100% |
